From paper PMC4171615, “Discovery of selective inhibitors of Glutaminase-2, which inhibit mTORC1, activate autophagy and inhibit proliferation in cancer cells” (Oncotarget, 2014)
Positions count from the first letter of the chain named.

Experiments:
[1] = molecular target: T1, KGA_Y394L (Homo sapiens, UniProt O94925, Y394L); assay: Glutaminase activity assay, KGA mutant Y394L; format: biochemical
T1 construct: a KGA cDNA fragment of 1644 bp (residues Leu123-Leu669); His-tag (N); made in house; host or cells: Escherichia coli
T1 sequence (O94925 123-669 Y394L): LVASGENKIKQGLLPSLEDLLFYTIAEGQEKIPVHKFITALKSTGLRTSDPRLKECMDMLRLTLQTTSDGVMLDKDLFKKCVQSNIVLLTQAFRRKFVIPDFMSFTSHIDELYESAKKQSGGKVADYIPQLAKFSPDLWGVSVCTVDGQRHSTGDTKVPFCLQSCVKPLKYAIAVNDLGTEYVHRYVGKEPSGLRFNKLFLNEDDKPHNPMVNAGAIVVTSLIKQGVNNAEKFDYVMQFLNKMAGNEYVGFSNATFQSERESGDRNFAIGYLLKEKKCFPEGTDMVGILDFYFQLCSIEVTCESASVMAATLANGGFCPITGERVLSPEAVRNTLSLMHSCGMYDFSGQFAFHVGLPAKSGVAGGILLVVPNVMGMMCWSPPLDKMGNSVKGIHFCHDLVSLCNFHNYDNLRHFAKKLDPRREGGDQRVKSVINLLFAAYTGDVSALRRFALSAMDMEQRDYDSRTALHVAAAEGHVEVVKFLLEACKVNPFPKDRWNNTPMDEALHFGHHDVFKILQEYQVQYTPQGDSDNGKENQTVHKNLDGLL
Procedure: Human glutaminase activity was measured using a two-step assay as described previously. A microtiter assay format was used to facilitate the collection of multiple data points. […] Samples were incubated at 25°C for 10 min and then 10 μl of 200 mM glutamine were added to the reaction mix. After adding glutamine, the reactions were incubated at 37°C for 60 min and then quenched by the addition of 10 μl of 0.6 M HCl. Subsequently, 100 μl of a second reaction mixture (3.7 units of purified bovine liver glutamate dehydrogenase, 160 mM Tris/acetate [pH 9.4], 400 mM hydrazine, 5 mM ADP and 2 mM NAD^+) was added to the stopped first reaction mixture and incubated for 30 min at 25°C. The absorbance at 340 nm was measured using a Wallac Victor2V plate reader (PerkinElmer), fitted with a 340 nm excitation filter. Sample absorbance was measured against a blank, containing no human glutaminase.
Site-directed mutagenesis was performed on the pET28a(+)-GAB or pET28a(+)-KGA plasmids using PfuUltra II Fusion HS DNA polymerase (Agilent Technologies) to create the GAB and KGA mutants. The deep view program (Version 3.7) of the Swiss-MODEL server was used to generate the three dimensional structure of homologous modeled GAB. Using the integrated sequence alignment tools and structural superimposition algorithms, the target sequence was mapped on the modeling templates.

[2] = molecular target: T2, KGA_D520K (Homo sapiens, UniProt O94925, D520K); assay: Glutaminase activity assay, KGA mutant D520K; format: biochemical
T2 construct: a KGA cDNA fragment of 1644 bp (residues Leu123-Leu669); His-tag (N); made in house; host or cells: Escherichia coli
T2 sequence (O94925 123-669 D520K): T1 sequence (O94925 123-669 Y394L) with L272Y, D398K
Procedure: Human glutaminase activity was measured using a two-step assay as described previously. A microtiter assay format was used to facilitate the collection of multiple data points. Typically, 10 μl of compound, which was dissolved in DMSO, was added to 80 μl of an initial assay mix (0.1 mM hKGA, 0.2 mM EDTA and 50 mM Tris/acetate, pH 8.6). Samples were incubated at 25°C for 10 min and then 10 μl of 200 mM glutamine were added to the reaction mix. After adding glutamine, the reactions were incubated at 37°C for 60 min and then quenched by the addition of 10 μl of 0.6 M HCl. Subsequently, 100 μl of a second reaction mixture (3.7 units of purified bovine liver glutamate dehydrogenase, 160 mM Tris/acetate [pH 9.4], 400 mM hydrazine, 5 mM ADP and 2 mM NAD^+) was added to the stopped first reaction mixture and incubated for 30 min at 25°C. The absorbance at 340 nm was measured using a Wallac Victor2V plate reader (PerkinElmer), fitted with a 340 nm excitation filter. Sample absorbance was measured against a blank, containing no human glutaminase.
Site-directed mutagenesis was performed on the pET28a(+)-GAB or pET28a(+)-KGA plasmids using PfuUltra II Fusion HS DNA polymerase (Agilent Technologies) to create the GAB and KGA mutants. […] The sequence alignment was compared with crystal structure of the GAC (PDB code: 3UO9) and the resulting model of GAB was analyzed using the Swiss-PDB server. […]

IC50 [1]: 1400 ± 200 nM | IC50 [2]: 290 ± 30 nM
SMILES: CCCCCCCCCCCCCC(CC1=CC(=O)C=C(OC)C1=O)OC(C)=O (centres unmarked) [AV-1]
